Source: US6262108A, “Medicinal use of cromoglycic acid compounds” (Kyoto Pharmaceutical Industries, Ltd., priority 1997, dated 2001)
“Also recorded” adds a separate entry of the source.

How the values were obtained:
Acute Toxicity Test = conditions: mouse, in vivo; oral, suspension, male ICR mice
Text: The cromoglycic acid compound prepared in the above Example 1 was orally administered to male ICR mice (3 per group) in the form of a suspension.

[1] = tested on: collagen-induced arthritis in mice; assay: Collagen-induced arthritis in mice: arthritis score; assay type: in vivo, male DBA/1J mice; conditions: for Arthritis score: mean ± standard error (n = 8-10)
Text: (§1) According to the method of Courtenay et al. (Courtenay, J. S. et al.: Immunization against heterologous type II collagen induces arthritis in mice. Nature, 283:666, 1980), male DBA/1J mice (CHARLES RIVER JAPAN INC.) were sensitized with bovine type II collagen to induce collagen-induced arthritis (rheumatoid arthritis). After the onset of arthritis, diethyl acetoacetylcromoglycate was orally administered and its inhibitory effect was examined. The method is detailed in the following.
Male DBA/1J mice (8-week-old) were pre-bred for one week and divided into the following 3 groups based on body weight (8-10 per group).
Bovine type II collagen (2 mg) was dissolved in 0.01M acetic acid (1 ml) and suspended in an equivalent amount of Freund's complete adjuvant, and 0.1 ml thereof was intradermally injected to the control group and treated group at 9 weeks of age at the base of the tail, followed by the second injection three weeks later at 12 weeks of age.
Starting from day 31 after the initial injection of collagen till the end of the treatment, the mice of each group were scored (arthritis score) twice a week for the levels of redness, swelling and stiffness of four limbs by a blind test method. The scores were taken according to a method similar to the method of Bjork et al. (Bjork, J. and Kleinau, S.: Paradoxical effects of LS-2616 (Linomide) treatment in the type II collagen arthritis model in mice, Agents and Actions, 27:319-321, 1989.), wherein normal was rated 0 point, inflammation on one digit was 1 point, inflammation on two or more digits and normal metacarpal region and metatarsal region of the limbs, or inflammation on one digit and metacarpal region and metatarsal region of the limbs was 2 points, and inflammation on digits and metacarpal region and metatarsal region of the limbs was 3 points, each mouse scoring 0 to 12 points in total.
The treatment was continued for 6 weeks from day 41 from the initial injection of collagen. […]

[2] = tested on: anti-bovine type II collagen antibody; assay: Anti-bovine type II collagen antibody titer in blood (ELISA) in collagen-induced arthritis mice; assay type: in vivo, male DBA/1J mice; conditions: 100 mg/kg/day orally
Text: as §1
(§2) Male DBA/1J mice (8-week-old) were pre-bred for one week and divided into the following 3 groups based on body weight (8-10 per group). […]
At day 42 after the initiation of treatment, blood was taken from carotid artery and the mice were exsanguinated to death under ether anesthesia. The anti-bovine type II collagen antibody titer in blood was determined by the ELISA method according to the method of Stuart et al. (Stuart, J. M. et al.: Nature and specificity of the immune response to collagen in type II collagen-induced arthritis in mice, J. Clin. Invest., 69:673-683, 1982).

[3] = tested on: bone of feet and digits of the four limbs; assay: X-ray score of bone destruction in collagen-induced arthritis mice; assay type: in vivo, male DBA/1J mice; conditions: 100 mg/kg/day orally
Text: as §1, §2
In addition, the whole body w as X-ray photographed and destruction state of the bone of feet and digits of the four limbs was scored (X-ray score) by a blind test according to the criteria of Gliman et al. (Gliman S. C. et al.: Immunological abnormalities in rats with adjuvant-induced ar thritis, II. Effect of antiarthritic therapy on immune function in relation to disease development, Int. J. Immunopharmacol. , 9:9-16, 1987), wherein normal was rated 0 point, destruction in one joint was 1 point, destruction in two or more joints, though not all joints, was 2 points, and destruction in all joints was 3 points, each mouse scoring 0 to 12 points in total.

[4] = tested on: Type IV allergic dermatitis; assay: Type IV allergic dermatitis (picryl chloride) auricle swelling; assay type: in vivo, male ICR mice
Protocol: Male 6-week-old ICR mice (Clea Japan, Inc.) were divided into two groups of control group and administration group containing 8-9 mice each. A 0.5% methylcellulose solution (10 ml/kg) was forcefully administered orally to the control group and diethyl acetoacetylcromoglycate (100 mg/kg) was forcefully administered orally to the administration group twice a day for 14 days for each group. After the initial administration at day 8 of the administration, pentobarbital sodium (55 mg/kg) was intraperitoneally administered to each mouse and the abdomen was shaved. 5% Picryl chloride (50 μl) dissolved in acetone-olive oil (mixing ratio, 1:4) was applied to the shaved portion (diameter about 2 cm). After the initial administration at day 5 after the application (day 12 of administration), all mice were anesthetized with ether and the thickness of both auricles was measured with a dial thickness gauge (Mitutoyo Co.). […] After 48 hours from this antigen challenge, the thickness of both auricles was measured with a dial thickness gauge under ether anesthesia.
The difference between the thickness of the auricle applied with the solvent and the thickness of the auricle applied with the antigen was measured for each mouse.

CCOC(=O)c1cc(=O)c2c(OCC(COc3cccc4oc(C(=O)OCC)cc(=O)c34)OC(=O)CC(C)=O)cccc2o1 [Example 1, Diethyl Acetoacetylcromoglycate]
LD50 (Acute Toxicity Test): > 1000 mg/kg
effect on arthritis score (in words) ([1]; 100 mg/kg/day orally, day 38 after start of treatment, U-test with control group): inhibition of the symptoms of collagen-induced arthritis (rheumatoid arthritis); also recorded: significant improvement in the arthritis scores
Arthritis score ([1]; 100 mg/kg/day orally, day 79 after initial injection of collagen (day 38 after starting treatment), control 10.70 ± 0.49, p < 0.01): 6.36 ± 1.30
Arthritis score ([1]; day 38 after initial injection of collagen (3 days before treatment)): 1.80 ± 0.61
effect on anti-bovine type II collagen antibody titer in blood (in words) ([2]; day 42 after initiation of treatment, ANOVA with control group): significant decrease in anti-bovine type II collagen antibody titer in blood; also recorded: inhibition of an increase in the anti-bovine collagen antibody titer in blood
Anti-bovine type II collagen antibody titer in blood ([2]; day 83 after initial injection of collagen (day 42 after starting treatment), mean ± standard error (n = 8-10), control 0.301 ± 0.005, p < 0.01): 0.203 ± 0.010
effect on X-ray score / bone destruction (in words) ([3]; day 42 after starting treatment, U-test with control group): signifiicant improvement in X-ray so re; also recorded: inhibition of bone destruction of feet and digits of the four limbs
X-ray score ([3]; day 83 after initial injection of collagen (day 42 after starting treatment), mean ± standard error (n = 8-10), control 10.20 ± 0.40, p < 0.01): 5.80 ± 1.10
Increase in thickness of auricle after application of antigen ([4]; 100 mg/kg orally twice a day for 14 days, 48 hr after applying 0.5% picryl chloride solution, mean ± standard error (n = 8-9), control 0.045 ± 0.003, p < 0.01): 0.031 ± 0.003 mm
effect on swelling of the auricle (in words) ([4]; 100 mg/kg orally twice a day, 48 hours after picryl chloride challenge, t-test with control group): significant inhibitory action on the swelling of the auricle
